Starred links: 1 amine or outer side, 2 acyl side, 3 side chain; linkers in the order of their positions; H or OH if unused. Positions of bridges follow the written chain, without caps; N, C: chain ends. Non-standard residues stand in square brackets, D forms with d. Residues, ends and D or L forms follow the SMILES beside them. Groups on a side chain read outwards from the residue. *: point of attachment. X2 = O=C(O)CCCCCCCCCCCCCCCCC(=O)N[C@@H](CCC(=O)NCOCCOCC(=O)NCOCCOCC(=O)*)C(=O)O; C20 diacid = O=C(O)CCCCCCCCCCCCCCCCCCC(=O)*; C18 diacid = O=C(O)CCCCCCCCCCCCCCCCC(=O)*; γGlu = O=C(O)[C@H](CCC(=O)[*:2])N[*:1]; Palmitoyl = CCCCCCCCCCCCCCCC(=O)*; AEEA = NCCOCCOCC(=O)O

This is an account of results in patent publication US12018059B2, “Human amylin analog polypeptides and methods of use” (Intarcia Therapeutics, Inc., priority 2018, dated 2024).

The data set can be described thus: in vivo. Also noted: species or system Sprague-Dawley rats. The note with it: rat, iv, 0.033 mg/kg. In short, it runs like this:
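Peptide plasma levels measured by UPLC-MS/MS (C18, product-ion monitoring) after protein precipitation or WCX SPE, calibrated in K2EDTA/protease-inhibitor rat plasma. Dosing in non-fasted male Sprague-Dawley rats (n=3): 0.033 mg/kg over 1 h by IV or SC infusion, or 0.3 mg/kg SC bolus; sampling up to 48 h.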

With `CC[C@H](C)[C@H](NC(=O)[C@@H]1CCCN1C(=O)CNC(=O)[C@H](Cc1ccccc1)NC(=O)[C@H](CC(N)=O)NC(=O)[C@H](CC(N)=O)NC(=O)[C@H](CO)NC(=O)[C@H](CO)NC(=O)[C@H](CCCCN)NC(=O)[C@H](CCCCNC(=O)COCCOCNC(=O)COCCOCNC(=O)CC[C@H](NC(=O)CCCCCCCCCCCCCCCCC(=O)O)C(=O)O)NC(=O)[C@H](CC(C)C)NC(=O)[C@H](CCC(=O)O)NC(=O)[C@H](CC(N)=O)NC(=O)[C@H](C)NC(=O)[C@H](CC(C)C)NC(=O)[C@H](CCCNC(=N)N)NC(=O)[C@H](CCC(N)=O)NC(=O)[C@@H](NC(=O)[C@H](C)NC(=O)[C@@H]1CSSC[C@H](NC(=O)[C@@H](N)CO)C(=O)N[C@@H](CC(N)=O)C(=O)N[C@@H]([C@@H](C)O)C(=O)N[C@@H](CO)C(=O)N[C@@H]([C@@H](C)O)C(=O)N1)[C@@H](C)O)C(=O)N[C@@H](CC(C)C)C(=O)N1CCC[C@H]1C(=O)N1CCC[C@H]1C(=O)N[C@H](C(=O)N[C@@H](CCCCN)C(=O)N[C@H](C(=O)NCC(=O)N[C@@H](CO)C(=O)N[C@@H](CCC(=O)O)C(=O)N[C@H](C(=O)N[C@@H](Cc1ccc(O)cc1)C(N)=O)[C@@H](C)O)C(C)C)[C@@H](C)O` [Compound A99] (H-SCNTSTCATQRLANELK(X2)KSSNNFGPILPPTKVGSETY-NH2; disulfide 2-7; N-terminus assumed), the Vd (as a rule, a proportionality between amount in the body and measured concentration, not a real space) was 0.128 L/kg; the clearance – broadly, the rate of elimination divided by the concentration – was found to be 0.0948 mL/min/kg; the half-life (as a rule, how long it takes for the measured level to halve) was 19.5 h.
For `CC[C@H](C)[C@H](NC(=O)[C@@H]1CCCN1C(=O)CNC(=O)[C@H](Cc1ccccc1)NC(=O)[C@H](CC(N)=O)NC(=O)[C@H](CC(N)=O)NC(=O)[C@H](CO)NC(=O)[C@H](CO)NC(=O)[C@H](CCCCN)NC(=O)[C@H](Cc1c[nH]cn1)NC(=O)[C@H](CC(C)C)NC(=O)[C@@H](CCCCNC(=O)CC[C@H](NC(=O)CC[C@H](NC(=O)COCCOCCNC(=O)COCCOCCNC(=O)CC[C@H](NC(=O)CCCCCCCCCCCCCCCCCCC(=O)O)C(=O)O)C(=O)O)C(=O)O)NC(=O)[C@H](CC(N)=O)NC(=O)[C@H](C)NC(=O)[C@H](CC(C)C)NC(=O)[C@H](CCCNC(=N)N)NC(=O)[C@H](CCC(N)=O)NC(=O)[C@@H](NC(=O)[C@H](C)NC(=O)[C@@H]1CSSC[C@H](NC(=O)[C@@H](N)CO)C(=O)N[C@@H](CC(N)=O)C(=O)N[C@@H]([C@@H](C)O)C(=O)N[C@@H](CO)C(=O)N[C@@H]([C@@H](C)O)C(=O)N1)[C@@H](C)O)C(=O)N[C@@H](CC(C)C)C(=O)N1CCC[C@H]1C(=O)N1CCC[C@H]1C(=O)N[C@H](C(=O)N[C@@H](CCCCN)C(=O)N[C@H](C(=O)NCC(=O)N[C@@H](CO)C(=O)N[C@@H](CCC(=O)O)C(=O)N[C@H](C(=O)N[C@@H](Cc1ccc(O)cc1)C(N)=O)[C@@H](C)O)C(C)C)[C@@H](C)O` [Compound A101] (H-SCNTSTCATQRLAN[dK]([γGlu-γGlu-AEEA-AEEA-γGlu-C20 diacid])LHKSSNNFGPILPPTKVGSETY-NH2; disulfide 2-7; N-terminus assumed), in that order: 0.149 L/kg, 0.0675 mL/min/kg and 28.4 h.
Consider `CC[C@H](C)[C@H](NC(=O)[C@@H]1CCCN1C(=O)CNC(=O)[C@H](Cc1ccccc1)NC(=O)[C@H](CC(N)=O)NC(=O)[C@H](CC(N)=O)NC(=O)[C@H](CO)NC(=O)[C@H](CO)NC(=O)[C@H](CCCCN)NC(=O)[C@H](Cc1c[nH]cn1)NC(=O)[C@@H](CCCCNC(=O)CC[C@H](NC(=O)CC[C@H](NC(=O)CC[C@H](NC(=O)CCCCCCCCCCCCCCCCC(=O)O)C(=O)O)C(=O)O)C(=O)O)NC(=O)[C@H](CCC(=O)O)NC(=O)[C@H](CC(N)=O)NC(=O)[C@H](C)NC(=O)[C@H](CC(C)C)NC(=O)[C@H](CCCNC(=N)N)NC(=O)[C@H](CCC(N)=O)NC(=O)[C@@H](NC(=O)[C@H](C)NC(=O)[C@@H]1CSSC[C@H](NC(=O)[C@@H](N)CO)C(=O)N[C@@H](CC(N)=O)C(=O)N[C@@H]([C@@H](C)O)C(=O)N[C@@H](CO)C(=O)N[C@@H]([C@@H](C)O)C(=O)N1)[C@@H](C)O)C(=O)N[C@@H](CC(C)C)C(=O)N1CCC[C@H]1C(=O)N1CCC[C@H]1C(=O)N[C@H](C(=O)N[C@@H](CCCCN)C(=O)N[C@H](C(=O)NCC(=O)N[C@@H](CO)C(=O)N[C@@H](CCC(=O)O)C(=O)N[C@H](C(=O)N[C@@H](Cc1ccc(O)cc1)C(N)=O)[C@@H](C)O)C(C)C)[C@@H](C)O` [Compound A104] (H-SCNTSTCATQRLANE[dK]([γGlu-γGlu-γGlu-C18 diacid])HKSSNNFGPILPPTKVGSETY-NH2; disulfide 2-7), for which the volume of distribution (Vd) was found to be 0.137 L/kg, the clearance came to 0.108 mL/min/kg and the half-life is 16.6 h.
For `CCCCCCCCCCCCCCCC(=O)N[C@@H](CCC(=O)NCCCC[C@H](NC(=O)[C@@H]1CSSC[C@H](NC(=O)[C@@H](N)CO)C(=O)N[C@@H](CC(N)=O)C(=O)N[C@@H]([C@@H](C)O)C(=O)N[C@@H](CO)C(=O)N[C@@H]([C@@H](C)O)C(=O)N1)C(=O)N[C@H](C(=O)N[C@@H](CCC(N)=O)C(=O)N[C@@H](CCCNC(=N)N)C(=O)N[C@@H](CC(C)C)C(=O)N[C@@H](C)C(=O)N[C@@H](CC(N)=O)C(=O)N[C@@H](CCC(=O)O)C(=O)N[C@@H](CC(C)C)C(=O)N[C@@H](Cc1c[nH]cn1)C(=O)N[C@@H](CCCCN)C(=O)N[C@@H](CO)C(=O)N[C@@H](CO)C(=O)N[C@@H](CC(N)=O)C(=O)N[C@@H](CC(N)=O)C(=O)N[C@@H](Cc1ccccc1)C(=O)NCC(=O)N1CCC[C@H]1C(=O)N[C@H](C(=O)N[C@@H](CC(C)C)C(=O)N1CCC[C@H]1C(=O)N1CCC[C@H]1C(=O)N[C@H](C(=O)N[C@@H](CCCCN)C(=O)N[C@H](C(=O)NCC(=O)N[C@@H](CO)C(=O)N[C@@H](CCC(=O)O)C(=O)N[C@H](C(=O)N[C@@H](Cc1ccc(O)cc1)C(N)=O)[C@@H](C)O)C(C)C)[C@@H](C)O)[C@@H](C)CC)[C@@H](C)O)C(=O)O` [Compound A108] (H-SCNTSTCK([γGlu-Palmitoyl])TQRLANELHKSSNNFGPILPPTKVGSETY-NH2; disulfide 2-7), in that order: 0.396 L/kg, 6.45 mL/min/kg and 1.01 h.
In turn, `CC[C@H](C)[C@H](NC(=O)[C@@H]1CCCN1C(=O)CNC(=O)[C@H](Cc1ccccc1)NC(=O)[C@H](CC(N)=O)NC(=O)[C@H](CC(N)=O)NC(=O)[C@H](CO)NC(=O)[C@H](CO)NC(=O)[C@H](CCCCN)NC(=O)[C@H](CCC(N)=O)NC(=O)[C@H](CC(C)C)NC(=O)[C@H](Cc1ccccc1)NC(=O)[C@H](CC(N)=O)NC(=O)[C@H](C)NC(=O)[C@H](CC(C)C)NC(=O)[C@H](CCCNC(=N)N)NC(=O)[C@H](CO)NC(=O)[C@@H](NC(=O)[C@H](C)NC(=O)[C@@H]1CSSC[C@H](NC(=O)[C@@H](N)CCCCNC(=O)CC[C@H](NC(=O)CCCCCCCCCCCCCCCCC(=O)O)C(=O)O)C(=O)N[C@@H](CC(N)=O)C(=O)N[C@@H]([C@@H](C)O)C(=O)N[C@@H](CO)C(=O)N[C@@H]([C@@H](C)O)C(=O)N1)[C@@H](C)O)C(=O)N[C@@H](CC(C)C)C(=O)N1CCC[C@H]1C(=O)N1CCC[C@H]1C(=O)N[C@H](C(=O)N[C@@H](CCCCN)C(=O)N[C@H](C(=O)NCC(=O)N[C@@H](CO)C(=O)N[C@@H](CCC(=O)O)C(=O)N[C@H](C(=O)N[C@@H](Cc1ccc(O)cc1)C(N)=O)[C@@H](C)O)C(C)C)[C@@H](C)O` [Compound A109] (H-K([γGlu-C18 diacid])CNTSTCATSRLANFLQKSSNNFGPILPPTKVGSETY-NH2; disulfide 2-7; N-terminus assumed) gave a Vd of 0.154 L/kg, a clearance of 0.15 mL/min/kg and a half-life of 16 h.
With `CCCCCCCCCCCCCCCC(=O)N[C@@H](CCC(=O)NCCCC[C@H](NC(=O)[C@H](CCCNC(=N)N)NC(=O)[C@H](CCC(N)=O)NC(=O)[C@@H](NC(=O)[C@H](C)NC(=O)[C@@H]1CSSC[C@H](NC(=O)[C@@H](N)CO)C(=O)N[C@@H](CC(N)=O)C(=O)N[C@@H]([C@@H](C)O)C(=O)N[C@@H](CO)C(=O)N[C@@H]([C@@H](C)O)C(=O)N1)[C@@H](C)O)C(=O)N[C@@H](C)C(=O)N[C@@H](CC(N)=O)C(=O)N[C@@H](CCC(=O)O)C(=O)N[C@@H](CC(C)C)C(=O)N[C@@H](Cc1c[nH]cn1)C(=O)N[C@@H](CCCCN)C(=O)N[C@@H](CO)C(=O)N[C@@H](CO)C(=O)N[C@@H](CC(N)=O)C(=O)N[C@@H](CC(N)=O)C(=O)N[C@@H](Cc1ccccc1)C(=O)NCC(=O)N1CCC[C@H]1C(=O)N[C@H](C(=O)N[C@@H](CC(C)C)C(=O)N1CCC[C@H]1C(=O)N1CCC[C@H]1C(=O)N[C@H](C(=O)N[C@@H](CCCCN)C(=O)N[C@H](C(=O)NCC(=O)N[C@@H](CO)C(=O)N[C@@H](CCC(=O)O)C(=O)N[C@H](C(=O)N[C@@H](Cc1ccc(O)cc1)C(N)=O)[C@@H](C)O)C(C)C)[C@@H](C)O)[C@@H](C)CC)C(=O)O` [Compound A121] (H-SCNTSTCATQRK([γGlu-Palmitoyl])ANELHKSSNNFGPILPPTKVGSETY-NH2; disulfide 2-7), the Vd was found to be 0.239 L/kg, the clearance amounted to 2.11 mL/min/kg and the half-life was 1.8 h.
